{
  "source": "patent US11203576B2",
  "about": "“Aurora kinase and Janus kinase inhibitors for prevention of graft versus host disease” (H. LEE MOFFITT CANCER CENTER AND RESEARCH INSTITUTE, INC., priority 2016, dated 2021)",
  "key": {"[1]": {"test_system": "xenogeneic GVHD (NSG mice transplanted with human PBMCs)", "assay": "Xenogeneic GVHD model", "type": "in vivo", "source_text": "After transplantation and treatment with either AJI-100 or vehicle control, human T cells were isolated from recipient mouse spleens at day +14, stained for pH3Ser^10 or pSTAT3 (+IL-6 stimulation), and analyzed as described.\nNOD scid gamma (NSG) mice (male or female, 6-24 weeks old) were purchased from Jackson Laboratory (Bar Harbor, Me., USA) and raised per an IACUC-approved protocol in adherence to the NIH Guide for the Care and Use of Laboratory Animals. Mice received either (i) alisertib (30 mg/kg daily), TG101348 (45 mg/kg twice a day), a combination of alisertib and TG101348, or vehicle (methylcellulose) by oral gavage or (ii) AJI-100 (50 mg/kg daily) or vehicle (50% polyethylene glycol, 15% 2-hydroxypropyl-b-cyclodextrin, and 10% DMSO in sterile saline) ip from day 0 to day +14.\nMice were monitored for GVHD clinical scores (K. R. Cooke et al., An experimental model of idiopathic pneumonia syndrome after bone marrow transplantation: I. The roles of minor H antigens and endotoxin. Blood 88, 3230 (1996)), weight, and premoribund status. As indicated, mice were euthanized on day +14 to study recipient spleen Tconv, Tregs, TH1, TH17, B cells, and T-cell signal transduction. Human CD4^+ Treg (CD25+, CD127^−, Foxp3^+), Tconv(CD25^+, CD127^+), TH1, TH17, and CD19^+ B cells residing in recipient spleens were quantified by flow cytometry. T-cell pH3 ser10 and PSTAT3 were evaluated by flow cytometry. IL-17 ELISPOTs were performed using isolated human T cells from recipient mouse spleen as described above. Tissue samples were prepared, stained (Ventana Medical Systems, Tucson, Ariz.), and imaged (Vista, Calif., USA) to identify human T-cells as previously described. All vertebrate animal work was IACUC-approved."}, "[2]": {"test_system": "T-cells allostimulated by dendritic cells (DC)", "assay": "Allogeneic mixed leukocyte reaction (alloMLR), T-cell proliferation", "type": "cell-based, human", "procedure": "Bulk donor T-cells were allostimulated with allogeneic DCs (DC:T-cell ratio of 1:30) as previously described (OneBlood, Tampa, Fla.)(15, 16, 20). […] As indicated, alloMLRs consisting of Treg depleted, naïve CD4^+ T-cells (Miltenyi Biotec Inc, San Diego, Calif.) were treated with a combination of ARL67156 (CD39 inhibitor, 125 μM, Sigma), AJI, or DMSO on day 0 to study the role of CD39 and ATP in this system. T-cell proliferation was measured on day 5 by a colorimetric assay (CellTiter 96 Aqueous One Solution Cell Proliferation Assay [MTS]; or CellTiter Blue, Promega, Madison, Wis.). Absorbance/optical density (OD) was analyzed at 490 nm or 590 nm, respectively. Proliferation (%)=(OD treated alloMLR−OD T-cells alone)/(OD DMSO alloMLR−OD T-cells alone)×100."}, "[3]": {"test_system": "human skin graft rejection by allogeneic PBMC", "assay": "Human skin xenograft rejection in NSG mice", "type": "in vivo", "settings": "50 mg/kg daily i.p., + PBMCs, day +21", "procedure": "Using the nondiagnostic mastectomy skin from consenting donors, a 1×1 cm skin graft was transplanted onto immunodeficient NSG mice dorsally. After 30 days of healing, 5×10^6 peripheral blood mononuclear cells (PBMC) from an HLA-disparate random donor was given by i.p. injection. A cohort of mice only received a skin graft without PBMCs, as negative rejection controls. The transplanted mice were treated with AJI-100 (50 mg/kg), a dual JAK2/Aurora A kinase inhibitor, or vehicle daily by i.p. injection. Mice were humanely euthanized on day +21 to assess human anti-human skin rejection pathology. […] Conversely, skin grafts from the mice who received Vehicle+PBMCs show diffuse lymphocytic infiltration of the dermis with exocytosis, a disrupted dermal-epidermal junction, and hyperkeratosis (grade III, FIG. 15B)."}, "[4]": {"test_system": "H3 Ser10 (target of Aurora)", "assay": "H3 Ser10 phosphorylation in DC-allostimulated T-cells (flow cytometry)", "type": "cell-based, human", "settings": "5-day allogeneic DC stimulation; AJI 750 nM, alisertib 1.75 μM, TG101348 350 nM", "procedure": "After 5 days, T cells were then harvested and directly fixed (Cytofix, BD Biosciences) for 10 min at 37° C. After washing with phosphate-buffered saline, the T cells were permeabilized with icecold methanol (90%, v/v) for at least 20 min at -20° C. The cells were stained for expression of CD3 and pH[…]."}, "U937 cells": {"test_system": "U937 cells", "assay": "CTL generation and tumor lysis assays", "type": "cell-based, human", "settings": "NSG mice, 50 mg/kg daily, irradiated U937 on days 0 and +7, vs vehicle; listed as AJI-100", "method": "NSG mice were transplanted with human PBMCs as described above, and treated with either AJI-100 (50 mg/kg daily) or vehicle control. Additionally, recipient mice received an inoculum of irradiated U937 cells (ATCC, 10^7/mouse) on days 0 and +7. Mice were euthanized between days +10 to +12, spleens were harvested, and human CD8^+ T-cells were isolated by magnetic bead separation. Fresh U937 target cells were labeled with Calcein-AM for 30 minutes, washed, and then cultured with the purified CD8^+ T-cells at varying effector to target ratios for 4 hours at 37° C. No additional drugs were added during this final culture. […] Percent lysis was calculated as follows: [(test fluorescence−spontaneous fluorescence)/(maximum fluorescence−spontaneous fluorescence)]×100."}, "STAT3 (target of JAK2)": {"test_system": "STAT3 (target of JAK2)", "assay": "STAT3 phosphorylation in T-cells (flow cytometry)", "type": "cell-based, human", "settings": "in vitro, DC- or IL-6-stimulated, vs DMSO", "procedure": "IL-6-induced pSTAT3 or IL-2-induced pSTAT5 (Y694) was measured by flow cytometry."}, "[5]": {"settings": "day +14, 50 mg/kg daily, vs vehicle"}},
  "data": [
    {"smiles": "NC(=O)c1ccc(Nc2ncc(F)c(Nc3ccccc3)n2)cc1", "note": "[bisanilinopyrimidine (II), 5-Fluoro-N4-phenyl-N2-[4-(4-carboxamide)phenyl]pyrimidine-2,4-diamine]", "values": [
      {"measurement": "overall survival", "setting": "[1]; 50 mg/kg daily i.p. day 0 to +14, 56 days of observation", "result": 71.4, "unit": "%"},
      {"measurement": "overall survival of the mice", "setting": "[1]; AJI-100 50 mg/kg daily ip day 0 to +14, vs vehicle", "result": "significantly improved"},
      {"measurement": "H3 ser10 phosphorylation in human T-cells harvested from mice", "setting": "[1]; [5]", "result": "less H3 ser10 phosphorylation"},
      {"measurement": "pSTAT3+ human T cells harvested from recipient spleens", "setting": "[1]; [5]", "result": "significantly reduced"},
      {"measurement": "H3 ser10 phosphorylation in human T-cells harvested from mice", "setting": "[1]; day +14, 50 mg/kg daily, vs vehicle, listed as AJI-100", "result": "significantly reduced"},
      {"measurement": "GVHD severity (pathology) in liver and lung", "setting": "[1]; day +14, vs vehicle", "result": "significantly reduced"},
      {"measurement": "Treg frequency in the liver", "setting": "[1]; day +14, vs vehicle", "result": "similar"},
      {"measurement": "absolute number of Tregs in recipient spleens", "setting": "[1]; day +14, vs vehicle", "result": "significantly reduced"},
      {"measurement": "absolute number of activated CD4+ Tconv in recipient spleens", "setting": "[1]; day +14, vs vehicle", "result": "significantly reduced"},
      {"measurement": "absolute number of total CD4+ T cells in recipient spleens", "setting": "[1]; day +14, vs vehicle", "result": "significantly reduced"},
      {"measurement": "absolute number of total spleen cells and human CD3+ T-cells in spleens", "setting": "[1]; day +14, vs vehicle", "result": "similar"},
      {"measurement": "percentage of CD4+ alloreactive Tconv in the spleen", "setting": "[1]; day +14, vs vehicle", "result": "similar"},
      {"measurement": "ratio of human Treg to CD4+ alloreactive/activated Tconv in recipient spleens", "setting": "[1]; day +14, vs vehicle", "result": "significantly increased"},
      {"measurement": "relative amount of human Tregs in the spleen", "setting": "[1]; day +14, vs vehicle", "result": "significantly increased"},
      {"measurement": "spleen-resident human TH1 T cells", "setting": "[1]; day +14, vs vehicle", "result": "significantly reduced"},
      {"measurement": "spleen-resident human TH17 T cells", "setting": "[1]; day +14, vs vehicle", "result": "significantly reduced"},
      {"measurement": "tissue-infiltrating human T cells in recipient liver (and lung)", "setting": "[1]; day +14, vs vehicle", "result": "dramatically reduced"},
      {"measurement": "tissue-infiltrating human T cells in recipient liver (and lung)", "setting": "[1]; day +14, vs vehicle, listed as AJI-100", "result": "significantly decreased"},
      {"measurement": "surviving mice with limited fur/skin changes without significant weight loss", "setting": "[1]; day +56", "result": 60, "unit": "%"},
      {"measurement": "onset and severity of GVHD", "setting": "[1]; dosing day 0 to +14, vs vehicle", "result": "reduced the severity of GVHD"},
      {"measurement": "tolerability in mouse models", "setting": "[1]; mouse, in vivo", "result": "tolerated"},
      {"measurement": "average GVHD clinical scores", "setting": "[1]; surviving treated mice at day +56", "result": "< 2"},
      {"measurement": "CD8+ T cell and CD19+ B cell reconstitution (absolute numbers)", "setting": "[1]; vs vehicle", "result": "suppressive effect"},
      {"measurement": "frequencies of CD4+ and CD8+ T cells and CD19+ B cells", "setting": "[1]; vs vehicle", "result": "similar"},
      {"measurement": "IC50", "setting": "[2]; Homo sapiens, single agent added once on day 0, proliferation on day 5, DC:T-cell ratio 1:30, read-out: IC50, T-cell proliferation in alloMLR", "result": 200, "unit": "nM"},
      {"measurement": "suppression of T cells in alloMLRs", "setting": "[2]; single agent, nanomolar concentrations, vs DMSO", "result": "significant suppression"},
      {"measurement": "skin graft rejection grade (Bejarano scoring system)", "setting": "[3]", "result": "grade I"},
      {"measurement": "phosphorylation of histone 3 serine 10 (pH3 Ser10) in T-cells", "setting": "[4]", "result": "reducing the phosphorylation"},
      {"measurement": "in vivo generation of U937-specific CTL and killing of U937 targets", "setting": "U937 cells", "result": "did not inhibit CTL generation"},
      {"measurement": "STAT3 (pSTAT3 Y705) phosphorylation in T-cells", "setting": "STAT3 (target of JAK2)", "result": "less STAT3 phosphorylation"},
      {"measurement": "STAT3 (pSTAT3 Y705) phosphorylation in T-cells", "setting": "STAT3 (target of JAK2); listed as AJI-100", "result": "reducing the phosphorylation"}
    ]}
  ]
}
